According to the NIST ThermoML archive (doi:10.1016/j.jct.2018.08.013):
“And” between values parts separate entries of the source, which are not always exact repeats. Equal values may be shown once.

Experiment: specific heat capacity at constant pressure; xn = mol fraction of the nth substance listed
Details: 100 kPa, Crystal of intercomponent compound 1, x2 = 0.501

[Se] [selenium] + [Ga]
Details | specific heat capacity
145.47 K, relaxation calorimetry | 269.1 J/K/kg
153.32 K, relaxation calorimetry | 274.68 J/K/kg
153.34 K, relaxation calorimetry | 275.63 J/K/kg
153.36 K, relaxation calorimetry | 275.49 J/K/kg
161.23 K, relaxation calorimetry | 282.15 J/K/kg
161.3 K, relaxation calorimetry | 279.06 J/K/kg
161.31 K, relaxation calorimetry | 280.6 J/K/kg
169.16 K, relaxation calorimetry | 286.18 J/K/kg
169.22 K, relaxation calorimetry | 285.24 J/K/kg and 284.23 J/K/kg
177.11 K, relaxation calorimetry | 290.02 J/K/kg
177.12 K, relaxation calorimetry | 289.62 J/K/kg and 289.08 J/K/kg
185.02 K, relaxation calorimetry | 293.18 J/K/kg
185.03 K, relaxation calorimetry | 293.58 J/K/kg
185.05 K, relaxation calorimetry | 293.38 J/K/kg
192.93 K, relaxation calorimetry | 296.41 J/K/kg
192.95 K, relaxation calorimetry | 296.68 J/K/kg
192.96 K, relaxation calorimetry | 296.81 J/K/kg
200.83 K, relaxation calorimetry | 299.5 J/K/kg
200.86 K, relaxation calorimetry | 299.77 J/K/kg
200.88 K, relaxation calorimetry | 299.7 J/K/kg
208.74 K, relaxation calorimetry | 302.93 J/K/kg
208.76 K, relaxation calorimetry | 303 J/K/kg
208.8 K, relaxation calorimetry | 302.6 J/K/kg
216.62 K, relaxation calorimetry | 305.29 J/K/kg
216.66 K, relaxation calorimetry | 304.88 J/K/kg
216.71 K, relaxation calorimetry | 304.61 J/K/kg
224.53 K, relaxation calorimetry | 308.38 J/K/kg
224.58 K, relaxation calorimetry | 307.71 J/K/kg
224.64 K, relaxation calorimetry | 307.17 J/K/kg
232.41 K, relaxation calorimetry | 310.8 J/K/kg
232.48 K, relaxation calorimetry | 309.86 J/K/kg
232.56 K, relaxation calorimetry | 309.05 J/K/kg
240.31 K, relaxation calorimetry | 311.88 J/K/kg
240.39 K, relaxation calorimetry | 310.67 J/K/kg
240.46 K, relaxation calorimetry | 310.2 J/K/kg
248.21 K, relaxation calorimetry | 312.89 J/K/kg
248.3 K, relaxation calorimetry | 312.15 J/K/kg
248.37 K, relaxation calorimetry | 311.47 J/K/kg
256.11 K, relaxation calorimetry | 314.1 J/K/kg
256.21 K, relaxation calorimetry | 313.22 J/K/kg
256.27 K, relaxation calorimetry | 312.68 J/K/kg
262.02 K, Extra sensitive DSC | 315.04 J/K/kg
264.01 K, relaxation calorimetry | 314.5 J/K/kg
264.11 K, relaxation calorimetry | 313.9 J/K/kg
264.17 K, relaxation calorimetry | 313.42 J/K/kg
265 K, Extra sensitive DSC | 315.24 J/K/kg
270 K, Extra sensitive DSC | 315.51 J/K/kg
271.91 K, relaxation calorimetry | 315.31 J/K/kg
272.02 K, relaxation calorimetry | 314.5 J/K/kg
272.07 K, relaxation calorimetry | 314.3 J/K/kg
275 K, Extra sensitive DSC | 316.52 J/K/kg
279.81 K, relaxation calorimetry | 318.13 J/K/kg
279.92 K, relaxation calorimetry | 317.12 J/K/kg
279.96 K, relaxation calorimetry | 317.06 J/K/kg
280 K, Extra sensitive DSC | 317.19 J/K/kg
285 K, Extra sensitive DSC | 318.2 J/K/kg
290 K, Extra sensitive DSC | 319.21 J/K/kg
295 K, Extra sensitive DSC | 319.95 J/K/kg
299.68 K, Extra sensitive DSC | 320.55 J/K/kg
307 K, Extra sensitive DSC | 321.29 J/K/kg
310 K, Extra sensitive DSC | 322.03 J/K/kg
315 K, Extra sensitive DSC | 322.3 J/K/kg
320 K, Extra sensitive DSC | 322.91 J/K/kg
325 K, Extra sensitive DSC | 323.65 J/K/kg
330 K, Extra sensitive DSC | 324.52 J/K/kg
335 K, Extra sensitive DSC | 325.93 J/K/kg
340 K, Extra sensitive DSC | 325.93 J/K/kg
345 K, Extra sensitive DSC | 326.94 J/K/kg
350 K, Extra sensitive DSC | 328.02 J/K/kg
354.61 K, Extra sensitive DSC | 329.03 J/K/kg
358.6 K, Extra sensitive DSC | 328.76 J/K/kg
